Data as given in PubChem BioAssay AID256 (DTP/NCI, 2004).
Toxic doses and inconclusive results are not listed. The calls were made as follows: active = survival T/C of 150% or more; inactive = T/C below 125% in these data.

Test system: CD2F1 mice, L1210 leukemia ip, survival T/C
Assay: NCI In Vivo Anticancer Drug Screen. Data for tumor model L1210 Leukemia (intraperitoneal) in CD2F1 (CDF1) mice
Details: higher = longer survival
How it was run: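 Vehicle-treated tumor-bearing mice served as controls (C) for compound-treated mice (T). Reported figure is T divided by C.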

[1] = endpoint: mean survival time, dose: 100.0 mg/kg/injection, schedule: Q01DX001 (ip), vehicle: saline
[2] = endpoint: mean survival time, dose: 200.0 mg/kg/injection, schedule: Q01DX001 (ip), vehicle: saline
[3] = endpoint: mean survival time, dose: 400.0 mg/kg/injection, schedule: Q01DX001 (ip), vehicle: saline
[4] = endpoint: mean survival time, dose: 6.25 mg/kg/injection, schedule: Q01DX009 (ip), vehicle: saline with Tween-80
[5] = endpoint: mean survival time, dose: 12.5 mg/kg/injection, schedule: Q01DX009 (ip), vehicle: saline with Tween-80
[6] = endpoint: mean survival time, dose: 25.0 mg/kg/injection, schedule: Q01DX009 (ip), vehicle: saline with Tween-80
[7] = endpoint: mean survival time, dose: 50.0 mg/kg/injection, schedule: Q01DX009 (ip), vehicle: saline with Tween-80
[8] = endpoint: mean survival time, dose: 100.0 mg/kg/injection, schedule: Q04DX003 (ip), vehicle: saline with Tween-80
[9] = endpoint: mean survival time, dose: 200.0 mg/kg/injection, schedule: Q04DX003 (ip), vehicle: saline with Tween-80
[10] = endpoint: mean survival time, dose: 400.0 mg/kg/injection, schedule: Q04DX003 (ip), vehicle: saline with Tween-80
[11] = endpoint: mean survival time, dose: 100.0 mg/kg/injection, schedule: Q01DX001 (ip), vehicle: saline with Tween-80
[12] = endpoint: mean survival time, dose: 100.0 mg/kg/injection, schedule: Q01DX009 (ip), vehicle: saline with Tween-80
[13] = endpoint: mean survival time, dose: 200.0 mg/kg/injection, schedule: Q01DX001 (ip), vehicle: saline with Tween-80
[14] = endpoint: mean survival time, dose: 200.0 mg/kg/injection, schedule: Q01DX009 (ip), vehicle: saline with Tween-80
[15] = endpoint: mean survival time, dose: 400.0 mg/kg/injection, schedule: Q01DX001 (ip), vehicle: saline with Tween-80
[16] = endpoint: mean survival time, dose: 400.0 mg/kg/injection, schedule: Q01DX009 (ip), vehicle: saline with Tween-80
[17] = endpoint: mean survival time, dose: 75.0 mg/kg/injection, schedule: Q01DX001 (ip), vehicle: other
[18] = endpoint: mean survival time, dose: 150.0 mg/kg/injection, schedule: Q01DX001 (ip), vehicle: other
[19] = endpoint: mean survival time, dose: 300.0 mg/kg/injection, schedule: Q01DX001 (ip), vehicle: other

Measured: T/C

CC(C)(C)N=C=N[N+](C)(C)Cc1ccccc1
inactive: endpoint: mean survival time, dose: 6.25 mg/kg/injection, schedule: Q01DX009 (ip), vehicle: saline 95 % of control | endpoint: mean survival time, dose: 12.5 mg/kg/injection, schedule: Q01DX009 (ip), vehicle: saline 98 % of control | endpoint: mean survival time, dose: 25.0 mg/kg/injection, schedule: Q01DX009 (ip), vehicle: saline 111 % of control

COc1ccc(C(=C(CC(=O)O)C(=O)O)c2ccc(OC)cc2)cc1
inactive: [1] 98 % of control | [2] 98 % of control | [3] 101 % of control

COC1C(O)C(C)OC(OC2CC(O)C3(C)C(CCC4C3CCC3(C)C(C5=CC(=O)OC5)CCC43O)C2)C1O (stereo not given) (tested in a mixture with another compound)
inactive: endpoint: mean survival time, dose: 50.0 mg/kg/injection, schedule: Q01DX001 (ip), vehicle: saline sonified 87 % of control

ClC1=C(Cl)C(Cl)=C(Cl)C1=Cc1ccccc1
inactive: endpoint: mean survival time, dose: 3.12 mg/kg/injection, schedule: Q01DX009 (ip), vehicle: saline with Tween-80 101 % of control | [4] 104 % of control | [5] 105 % of control | [6] 106 % of control | [7] 105 % of control

Cc1cc(C(O)CNC(C)CCn2cnc3c2c(=O)n(C)c(=O)n3C)ccc1O (stereo not given)
inactive: endpoint: mean survival time, dose: 12.5 mg/kg/injection, schedule: Q01DX005 (ip), vehicle: water 93 % of control | endpoint: mean survival time, dose: 25.0 mg/kg/injection, schedule: Q01DX005 (ip), vehicle: water 96 % of control | endpoint: mean survival time, dose: 50.0 mg/kg/injection, schedule: Q01DX005 (ip), vehicle: water 96 % of control | endpoint: mean survival time, dose: 100.0 mg/kg/injection, schedule: Q01DX005 (ip), vehicle: water 100 % of control | endpoint: mean survival time, dose: 200.0 mg/kg/injection, schedule: Q01DX005 (ip), vehicle: water 93 % of control

CC(=O)N(O)CCCCCNC(=O)CCC(=O)N(O)CCCCCNC(=O)CCC(=O)N(O)CCCCCN
inactive: endpoint: mean survival time, dose: 125.0 mg/kg/injection, schedule: Q03HX024 (ip), vehicle: water 102 % of control | endpoint: mean survival time, dose: 188.0 mg/kg/injection, schedule: Q03HX024 (ip), vehicle: water 97 % of control | endpoint: mean survival time, dose: 280.0 mg/kg/injection, schedule: Q03HX024 (ip), vehicle: water 104 % of control

Cc1nc(-c2ccccc2)nc2c1CCO2
inactive: [8] 102 % of control | [9] 100 % of control | [10] 105 % of control

O=C(C=C(C(F)(F)F)C(F)(F)F)c1cccc([N+](=O)[O-])c1
inactive: endpoint: mean survival time, dose: 12.5 mg/kg/injection, schedule: Q04DX003 (ip), vehicle: saline with Tween-80 103 % of control | endpoint: mean survival time, dose: 25.0 mg/kg/injection, schedule: Q04DX003 (ip), vehicle: saline with Tween-80 96 % of control

COc1cc2c(cc1OC)C1CC(O)C3CCCCC3N1CC2 (stereo not given)
inactive: [8] 93 % of control | [9] 93 % of control

COc1ccc(N=c2ssc(SC)c2-c2ccccc2)cc1
inactive: [11] 102 % of control | [12] 103 % of control | [8] 101 % of control | [13] 100 % of control | [14] 102 % of control | [9] 102 % of control | [15] 102 % of control | [16] 103 % of control | [10] 98 % of control

CN(C)/C(N)=N\c1nc(O)cc(=O)[nH]1
inactive: [1] 102 % of control | [2] 96 % of control | [3] 96 % of control

CC(=O)Nc1cc(/C=C/c2ccccc2)ccc1S(=O)(=O)c1ccc(/C=C/c2ccccc2)cc1NC(C)=O
inactive: [12] 93 % of control | [14] 96 % of control | [16] 88 % of control

Nc1nc(OCc2ccccc2)ncc1C(=O)NC(CO)C(=O)O (stereo not given)
inactive: [4] 100 % of control | [5] 98 % of control | [6] 102 % of control

Clc1ccc(-c2nnc(-c3ccc(Cl)cc3)nn2)cc1
inactive: [8] 96 % of control | [9] 90 % of control | [10] 88 % of control

O=C(NC(=S)N1CCCC1)c1ccccc1
inactive: [7] 101 % of control | [12] 103 % of control | [14] 106 % of control

ClC(Cl)(Cl)c1nc(C(Cl)(Cl)Cl)nc(C(Cl)(Cl)Cl)n1
inactive: endpoint: mean survival time, dose: 100.0 mg/kg/injection, schedule: Q04DX003 (ip), vehicle: Klucel (hydroxypropylcellulose) (HPC) 97 % of control | endpoint: mean survival time, dose: 200.0 mg/kg/injection, schedule: Q04DX003 (ip), vehicle: Klucel (hydroxypropylcellulose) (HPC) 87 % of control | endpoint: mean survival time, dose: 400.0 mg/kg/injection, schedule: Q04DX003 (ip), vehicle: Klucel (hydroxypropylcellulose) (HPC) 91 % of control

COc1ccc2c(c1OC)C(=O)OC2c1cc(Br)c(O)c(C2OC(=O)c3c2ccc(OC)c3OC)c1 (stereo not given)
inactive: [12] 101 % of control | [8] 92 % of control | [14] 101 % of control | [9] 93 % of control | [16] 98 % of control | [10] 90 % of control

COc1ccc2c(c1)CCN=C2CCN1C(=O)CCC1=O
inactive: endpoint: mean survival time, dose: 100.0 mg/kg/injection, schedule: Q04DX003 (ip), vehicle: saline 101 % of control | endpoint: mean survival time, dose: 200.0 mg/kg/injection, schedule: Q04DX003 (ip), vehicle: saline 98 % of control

FC(F)(F)c1cccc([PH+](c2cccc(C(F)(F)F)c2)c2cccc(C(F)(F)F)c2)c1.FC(F)(F)c1cccc([PH+](c2cccc(C(F)(F)F)c2)c2cccc(C(F)(F)F)c2)c1.[Cl][Hg][Cl]
inactive: endpoint: mean survival time, dose: 12.5 mg/kg/injection, schedule: Q01DX009 (ip), vehicle: Klucel (hydroxypropylcellulose) (HPC) 101 % of control | endpoint: mean survival time, dose: 25.0 mg/kg/injection, schedule: Q01DX009 (ip), vehicle: Klucel (hydroxypropylcellulose) (HPC) 108 % of control | endpoint: mean survival time, dose: 50.0 mg/kg/injection, schedule: Q01DX009 (ip), vehicle: Klucel (hydroxypropylcellulose) (HPC) 89 % of control

CCCCCCCCCCC(C(=O)OCC)P(=O)(OCC)OCC (stereo not given)
inactive: endpoint: mean survival time, dose: 75.0 mg/kg/injection, schedule: Q01DX001 (ip), vehicle: saline 98 % of control | endpoint: mean survival time, dose: 150.0 mg/kg/injection, schedule: Q01DX001 (ip), vehicle: saline 102 % of control | endpoint: mean survival time, dose: 300.0 mg/kg/injection, schedule: Q01DX001 (ip), vehicle: saline 96 % of control

O=c1ccnc(SCc2ccccc2)[nH]1
inactive: endpoint: mean survival time, dose: 100.0 mg/kg/injection, schedule: Q04DX002 (ip), vehicle: saline with Tween-80 105 % of control | endpoint: mean survival time, dose: 200.0 mg/kg/injection, schedule: Q04DX002 (ip), vehicle: saline with Tween-80 101 % of control | endpoint: mean survival time, dose: 400.0 mg/kg/injection, schedule: Q04DX002 (ip), vehicle: saline with Tween-80 94 % of control

COc1ccc(/C=C2/SC(=S)NC2=O)c(OC)c1OC
inactive: [17] 103 % of control | [18] 92 % of control | [19] 103 % of control

Cc1ccc(S(=O)(=O)OC2CCCCC2c2cccc(Cl)c2)cc1 (stereo not given)
inactive: [17] 92 % of control | [18] 88 % of control | [19] 101 % of control

OC1c2ccccc2C2CC12 (stereo not given)
inactive: [11] 105 % of control | [13] 102 % of control | [15] 105 % of control

CSc1nc(NC2OCC(O)C(O)C2O)c(Br)c(=O)n1C (stereo not given)
inactive: endpoint: median survival time, dose: 12.5 mg/kg/injection, schedule: Q01DX005 (ip), vehicle: saline with Tween-80 98 % of control | endpoint: median survival time, dose: 25.0 mg/kg/injection, schedule: Q01DX005 (ip), vehicle: saline with Tween-80 100 % of control | endpoint: median survival time, dose: 50.0 mg/kg/injection, schedule: Q01DX005 (ip), vehicle: saline with Tween-80 101 % of control | endpoint: median survival time, dose: 100.0 mg/kg/injection, schedule: Q01DX005 (ip), vehicle: saline with Tween-80 102 % of control | endpoint: median survival time, dose: 200.0 mg/kg/injection, schedule: Q01DX005 (ip), vehicle: saline with Tween-80 98 % of control
